Test results reported in patent publication US12662491B2 (Redona Therapeutics, Inc., priority 2020, dated 2026).

target: T1, Zcchc11 enzyme (Homo sapiens, UniProt Q5TAX3); test: TUTase assay (Zcchc11 assay, Lin28a-dependent polyuridylation of pre-let-7); format: biochemical; details: Lin28a-dependent Zcchc11 (Z11) TUTase assay; read-out: Potency Lin28a-dep Z11 IC50
T1 construct: made in house; host or cells: HEK293 cells (Zcchc11); E. coli Rosetta II (LIN28A)
T1 sequence (Q5TAX3 212-1420): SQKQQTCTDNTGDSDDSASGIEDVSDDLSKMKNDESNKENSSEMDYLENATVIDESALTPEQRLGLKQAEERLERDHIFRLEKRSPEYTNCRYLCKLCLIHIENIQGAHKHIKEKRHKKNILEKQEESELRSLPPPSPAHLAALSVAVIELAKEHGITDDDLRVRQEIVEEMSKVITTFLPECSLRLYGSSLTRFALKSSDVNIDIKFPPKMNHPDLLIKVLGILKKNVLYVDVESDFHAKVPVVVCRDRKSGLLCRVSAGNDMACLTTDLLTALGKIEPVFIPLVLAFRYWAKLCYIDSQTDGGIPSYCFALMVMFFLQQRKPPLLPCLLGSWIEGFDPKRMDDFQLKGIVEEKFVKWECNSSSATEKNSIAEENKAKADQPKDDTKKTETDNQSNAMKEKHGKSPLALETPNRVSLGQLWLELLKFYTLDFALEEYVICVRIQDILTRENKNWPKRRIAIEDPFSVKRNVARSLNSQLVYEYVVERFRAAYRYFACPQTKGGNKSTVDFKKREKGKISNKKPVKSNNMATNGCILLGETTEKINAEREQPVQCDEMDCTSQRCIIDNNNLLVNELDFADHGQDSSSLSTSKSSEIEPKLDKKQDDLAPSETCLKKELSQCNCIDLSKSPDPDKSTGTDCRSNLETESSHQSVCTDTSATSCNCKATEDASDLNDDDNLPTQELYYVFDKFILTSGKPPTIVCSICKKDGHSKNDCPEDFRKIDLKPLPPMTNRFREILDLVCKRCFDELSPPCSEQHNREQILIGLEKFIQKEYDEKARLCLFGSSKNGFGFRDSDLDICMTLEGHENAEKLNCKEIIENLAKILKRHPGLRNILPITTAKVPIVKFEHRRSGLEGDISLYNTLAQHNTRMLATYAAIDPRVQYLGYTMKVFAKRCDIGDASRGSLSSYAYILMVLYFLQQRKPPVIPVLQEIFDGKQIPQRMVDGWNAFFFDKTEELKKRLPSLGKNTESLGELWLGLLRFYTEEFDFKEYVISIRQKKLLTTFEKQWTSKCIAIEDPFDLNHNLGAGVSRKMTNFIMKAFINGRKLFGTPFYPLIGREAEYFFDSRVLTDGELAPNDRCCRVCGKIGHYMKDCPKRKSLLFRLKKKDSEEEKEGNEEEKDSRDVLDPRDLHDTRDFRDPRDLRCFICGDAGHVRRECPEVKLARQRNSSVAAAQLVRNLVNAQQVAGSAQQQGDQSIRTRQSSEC
Summary of the method: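 LIN28A (10 nM) in pH 7.3 HEPES/KCl/MgCl2/DTT buffer was mixed with serially diluted compound, then 0.2 nM truncated human Zcchc11 and 2 nM labeled pre-let-7 were added for 30 min at room temperature. UTP (5 uM) and quench probe (4 nM) then started the reaction. Linear early rates gave IC50 values.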

Compound | IC50
O=C(O)c1cn(-c2nncs2)c2cc(N3CCC[C@@H]3COc3ccccn3)c(F)cc2c1=O [Example 433, (R)-6-fluoro-4-oxo-7-(2-((pyridin-2-yloxy)methyl)pyrrolidin-1-yl)-1-(1,3,4-thiadiazol-2-yl)-1,4-dihydroquinoline-3-carboxylic acid] | 1 to 10 µM
O=C(O)c1cn(-c2cn[nH]c2)c2cc(N3CCC[C@@H]3COc3ncccc3Cl)c(Cl)cc2c1=O [Example 434, (R)-6-chloro-7-(2-(((3-chloropyridin-2-yl)oxy)methyl)pyrrolidin-1-yl)-4-oxo-1-(1H-pyrazol-4-yl)-1,4-dihydroquinoline-3-carboxylic acid] | 1 to 10 µM
COCCn1cc(-n2cc(C(=O)O)c(=O)c3cc(Cl)c(N4CCC[C@@H]4COc4ncccc4Cl)cc32)cn1 [Example 435, (R)-6-chloro-7-(2-(((3-chloropyridin-2-yl)oxy)methyl)pyrrolidin-1-yl)-1-(1-(2-methoxy-ethyl)-1H-pyrazol-4-yl)-4-oxo-1,4-dihydroquinoline-3-carboxylic acid] | ≤ 1 µM
Cn1cc(-n2cc(C(=O)O)c(=O)c3cc(Cl)c(N4CCC[C@@H]4COc4ncccc4Cl)cc32)cn1 [Example 436, (R)-6-chloro-7-(2-(((3-chloropyridin-2-yl)oxy)methyl)pyrrolidin-1-yl)-1-(1-methyl-1H-pyrazol-4-yl)-4-oxo-1,4-dihydroquinoline-3-carboxylic acid] | ≤ 1 µM
CN(C)CCn1cc(-n2cc(C(=O)O)c(=O)c3cc(Cl)c(N4CCC[C@@H]4COc4ncccc4Cl)cc32)cn1 [Example 437, (R)-6-chloro-7-(2-(((3-chloropyridin-2-yl)oxy)methyl)pyrrolidin-1-yl)-1-(1-(2-(dimethylamino)ethyl)-1H-pyrazol-4-yl)-4-oxo-1,4-dihydroquinoline-3-carboxylic acid] | ≤ 1 µM
O=C(O)c1cn(-c2ccc3[nH]ccc3c2F)c2cc(N3CCC[C@@H]3COc3ccccn3)c(F)cc2c1=O [Example 438, (R)-6-fluoro-1-(4-fluoro-1H-indol-5-yl)-4-oxo-7-(2-((pyridin-2-yloxy)methyl)pyrrolidin-1-yl)-1,4-dihydroquinoline-3-carboxylic acid] | ≤ 1 µM
O=C(O)c1cn(-c2ccc3[nH]ccc3c2)c2cc(N3CCC[C@@H]3COc3ccccn3)c(F)cc2c1=O [Example 439, (R)-6-fluoro-1-(1H-indol-5-yl)-4-oxo-7-(2-((pyridin-2-yloxy)methyl)pyrrolidin-1-yl)-1,4-dihydroquinoline-3-carboxylic acid] | ≤ 1 µM
O=C(O)c1cn(-c2ccc3[nH]cnc3c2)c2cc(N3CCC[C@@H]3COc3ccccn3)c(F)cc2c1=O [Example 440, (R)-1-(1H-benzo[d]imidazol-5-yl)-6-fluoro-4-oxo-7-(2-((pyridin-2-yloxy)methyl)pyrrolidin-1-yl)-1,4-dihydroquinoline-3-carboxylic acid] | ≤ 1 µM
O=C(O)c1cn(-c2ccc3[nH]c(=O)[nH]c3c2)c2cc(N3CCC[C@@H]3COc3ccccn3)c(F)cc2c1=O [Example 441, (R)-6-fluoro-4-oxo-1-(2-oxo-2,3-dihydro-1H-benzo[d]imidazol-5-yl)-7-(2-((pyridin-2-yloxy)methyl)pyrrolidin-1-yl)-1,4-dihydroquinoline-3-carboxylic acid] | ≤ 1 µM
Cc1cccnc1OC[C@H]1CCCN1c1cc2c(cc1F)c(=O)c(C(=O)O)cn2-c1ccc2[nH]ccc2c1 [Example 442, (R)-6-fluoro-1-(1H-indol-5-yl)-7-(2-(((3-methyl-pyridin-2-yl)oxy)methyl)pyrrolidin-1-yl)-4-oxo-1,4-dihydroquinoline-3-carboxylic acid] | ≤ 1 µM
Cc1cccnc1OC[C@H]1CCCN1c1cc2c(cc1F)c(=O)c(C(=O)O)cn2-c1ccc2[nH]c(=O)[nH]c2c1 [Example 443, (R)-6-fluoro-7-(2-(((3-methylpyridin-2-yl)oxy)methyl)pyrrolidin-1-yl)-4-oxo-1-(2-oxo-2,3-dihydro-1H-benzo[d]imidazol-5-yl)-1,4-dihydroquinoline-3-carboxylic acid] | ≤ 1 µM
Cc1cccnc1OC[C@H]1CCCN1c1cc2c(cc1Cl)c(=O)c(C(=O)O)cn2-c1ccc2[nH]cnc2c1 [Example 444, (R)-1-(1H-benzo[d]imidazol-5-yl)-6-chloro-7-(2-(((3-methylpyridin-2-yl)oxy)methyl)pyrrolidin-1-yl)-4-oxo-1,4-dihydroquinoline-3-carboxylic acid] | ≤ 1 µM
O=C(O)c1cn(-c2ccc3c(c2)CCOC3)c2cc(N3CCC[C@@H]3COc3ncccc3Cl)c(Cl)cc2c1=O [Example 445, (R)-6-chloro-7-(2-(((3-chloropyridin-2-yl)oxy)methyl)pyrrolidin-1-yl)-1-(isochroman-6-yl)-4-oxo-1,4-dihydroquinoline-3-224 carboxylic acid] | ≤ 1 µM
CC1CC1n1cc(C(=O)O)c(=O)c2cc(F)c(N3CCC[C@@H]3COc3ccccn3)cc21 (stereo partly drawn) [Example 446, 6-fluoro-1-(2-methylcyclo-propyl)-4-oxo-7-((R)-2-((pyridin-2-yloxy)methyl)pyrrolidin-1-yl)-1,4-dihydro-quinoline-3-carboxylic acid] | 1 to 10 µM

Further lines, results first:

IC50 | Compound
≤ 1 µM | O=C(O)c1cn(-c2cnccn2)c2cc(N3CCC[C@@H]3COc3ncccc3Cl)c(Cl)cc2c1=O [Example 425, (R)-6-chloro-7-(2-(((3-chloropyridin-2-yl)oxy)methyl)pyrrolidin-1-yl)-4-oxo-1-(pyrazin-2-yl)-1,4-dihydroquinoline-3-carboxylic acid]
≤ 1 µM | CC(=O)Nc1ccc(-n2cc(C(=O)O)c(=O)c3cc(Cl)c(N4CCC[C@@H]4COc4ncccc4Cl)cc32)cn1 [Example 426, (R)-1-(6-acetamidopyridin-3-yl)-6-chloro-7-(2-(((3-chloro-pyridin-2-yl)oxy)methyl)pyrrolidin-1-yl)-4-oxo-1,4-dihydroquinoline-3-carboxylic acid]
≤ 1 µM | CS(=O)(=O)Nc1ccc(-n2cc(C(=O)O)c(=O)c3cc(Cl)c(N4CCC[C@@H]4COc4ncccc4Cl)cc32)cc1 [Example 427, (R)-6-chloro-7-(2-(((3-chloropyridin-2-yl)oxy)methyl)pyrrolidin-1-yl)-1-(4-(methyl-sulfonamido)phenyl)-4-oxo-1,4-dihydroquinoline-3-carboxylic acid]
≤ 1 µM | O=C(O)c1cn(-c2ccnc(O)c2)c2cc(N3CCC[C@@H]3COc3ncccc3Cl)c(Cl)cc2c1=O [Example 428, (R)-6-chloro-7-(2-(((3-chloropyridin-2-yl)oxy)methyl)pyrrolidin-1-yl)-1-(2-hydroxypyridin-4-yl)-4-oxo-1,4-dihydroquinoline-3-carboxylic acid]
≤ 1 µM | O=C(O)c1cn(-c2ccc(CO)nc2)c2cc(N3CCC[C@@H]3COc3ncccc3Cl)c(Cl)cc2c1=O [Example 429, (R)-6-chloro-7-(2-(((3-chloropyridin-2-yl)oxy)methyl)pyrrolidin-1-yl)-1-(6-(hydroxymethyl)pyridin-3-yl)-4-oxo-1,4-dihydroquinoline-3-carboxylic acid]
≤ 1 µM | O=C(O)c1cn(-c2ccc(N3CCCCC3)nc2)c2cc(N3CCC[C@@H]3COc3ncccc3Cl)c(Cl)cc2c1=O [Example 430, (R)-6-chloro-7-(2-(((3-chloropyridin-2-yl)oxy)methyl)pyrrolidin-1-yl)-4-oxo-1-(6-(piperidin-1-yl)pyridin-3-yl)-1,4-dihydroquinoline-3-carboxylic acid]
≤ 1 µM | O=C(O)c1cn(-c2ccc(N3CCOCC3)nc2)c2cc(N3CCC[C@@H]3COc3ncccc3Cl)c(Cl)cc2c1=O [Example 431, (R)-6-chloro-7-(2-(((3-chloropyridin-2-yl)oxy)methyl)pyrrolidin-1-yl)-1-(6-morpholino-pyridin-3-yl)-4-oxo-1,4-dihydroquinoline-3-carboxylic acid]
≤ 1 µM | O=C(O)c1cn(-c2ccc(N3CCCC3)nc2)c2cc(N3CCC[C@@H]3COc3ncccc3Cl)c(Cl)cc2c1=O [Example 432, (R)-6-chloro-7-(2-(((3-chloropyridin-2-yl)oxy)methyl)pyrrolidin-1-yl)-4-oxo-1-(6-(pyrrolidin-1-yl)pyridin-3-yl)-1,4-dihydroquinoline-3-carboxylic acid]
